The structures appear in SMILES notation. Some results are limits rather than exact numbers.

One data set has as its target T1, Human DGAT1 (Homo sapiens, UniProt O75907).
T1 construct: my translation of the primer: M-G-DYKDDDD-GDRGSSRRR) (N); made in house; host or cells: Sf9 insect cells (recombinant baculovirus BAC-DGAT1, pFASTBAC1); microsome fraction
T1 sequence (O75907 1-488): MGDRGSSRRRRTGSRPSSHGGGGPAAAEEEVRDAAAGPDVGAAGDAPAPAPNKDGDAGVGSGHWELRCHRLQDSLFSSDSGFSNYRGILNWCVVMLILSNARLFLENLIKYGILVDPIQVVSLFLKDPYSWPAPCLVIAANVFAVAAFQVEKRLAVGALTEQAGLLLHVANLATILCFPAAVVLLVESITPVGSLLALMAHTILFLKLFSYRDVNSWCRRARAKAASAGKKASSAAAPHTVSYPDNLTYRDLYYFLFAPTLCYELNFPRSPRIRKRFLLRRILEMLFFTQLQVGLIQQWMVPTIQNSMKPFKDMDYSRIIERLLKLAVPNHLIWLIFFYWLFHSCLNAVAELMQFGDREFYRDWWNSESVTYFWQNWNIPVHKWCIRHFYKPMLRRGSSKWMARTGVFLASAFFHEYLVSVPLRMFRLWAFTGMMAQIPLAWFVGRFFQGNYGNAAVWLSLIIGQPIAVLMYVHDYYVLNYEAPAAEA
Nature of the data set: DGAT inhibitory activity: [14C]-triglyceride synthesis by DGAT1 high expression Sf9 microsome. The format is biochemical. The settings on record: Table 1, 25 μM dioleoylglycerol, 25 μM [14C]-Oleoyl-CoA, 32° C., 15 min, read-out: DGAT inhibitory activity (according to IC50). The essentials:
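DGAT1 was overexpressed from recombinant baculovirus in Sf9 cells, and microsomes from these cells were the enzyme source. Reactions ran in 100 mM Tris-HCl pH 7.5, 250 mM sucrose, 150 mM MgCl2 and 0.01% BSA. [14C]-triglyceride was extracted into chloroform, separated by TLC and quantified by imaging plate, with inhibition calculated against control and blank (no microsome) counts.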
As usually defined, the IC50 is the concentration that gives 50% inhibition. As for `CCOc1ccc(C(=O)CCC(=O)Nc2sc(-c3ccccc3)nc2-c2ccccc2)cc1OCC` [Example 16, 4-(3,4-diethoxyphenyl)-N-(2,4-diphenyl-1,3-thiazol-5-yl)-4-oxobutanamide], the half-inhibitory concentration (IC50) was in the range of 50 to 500 nM. Still for that read-out and setting: the value for `CCCCc1sc(NC(=O)CCC(=O)c2ccc(OCC)c(OCC)c2)cc1-c1ccccc1` [Example 58, N-(5-butyl-4-phenyl-2-thienyl)-4-(3,4-diethoxyphenyl)-4-oxobutanamide] was 50 to 500 nM; that for `O=C(CCC(=O)c1ccc2c(c1)CCCC2)Nc1nc(-c2ccccc2)c(Cc2ccccc2)s1` [Example 7, N-(5-benzyl-4-phenyl-1,3-thiazol-2-yl)-4-oxo-4-(5,6,7,8-tetrahydronaphthalen-2-yl)butanamide] was at most 10 nM; that for `CCOc1ccc(C(=O)CCC(=O)Nc2nc(-c3ccccc3)c(Cc3ccccc3)s2)cc1` [Example 1, N-(5-benzyl-4-phenyl-1,3-thiazol-2-yl)-4-(4-ethoxyphenyl)-4-oxobutanamide] was at most 10 nM. The same measure, in the same setting: the same measure for `O=C(CCC(=O)c1ccccc1)Nc1nc(-c2ccccc2)c(Cc2ccccc2)s1` [Example 2, N-(5-benzyl-4-phenyl-1,3-thiazol-2-yl)-4-oxo-4-phenylbutanamide]: 50 to 500 nM; for `CCOc1cc(C)c(C(=O)CCC(=O)Nc2cc(-c3ccccc3)c(Cc3ccccc3)s2)cc1OCC` [Example 50, N-(5-benzyl-4-phenyl-2-thienyl) -4-(4,5-diethoxy-2-methylphenyl)-4-oxobutanamide]: 10 to 50 nM. The same measure, in the same setting: the same measure for `CCOc1ccc(C(=O)C(C)CC(=O)Nc2nc(-c3ccccc3)c(Cc3ccccc3)s2)cc1OCC` (centres unmarked) [Example 57, N-(5-benzyl-4-phenyl-1,3-thiazol-2-yl)-4-(3,4-diethoxyphenyl)-3-methyl-4-oxobutanamide]: at most 10 nM; for `CCOc1ccc(C(=O)CCC(=O)Nc2cc(-c3ccccc3)cc(-c3ccccc3)c2)cc1OCC` [Example 8, 4-(3,4-diethoxyphenyl)-4-oxo-N-(1,1′:3′,1″-terphenyl-5′-yl)butanamide]: 50 to 500 nM. With `CCOc1ccc(C(=O)CCC(=O)Nc2cn(Cc3ccccc3)nc2-c2ccccc2)cc1OCC` [Example 20, N-(1-benzyl-3-phenyl-1H-pyrazol-4-yl)-4-(3,4-diethoxyphenyl)-4-oxobutanamide], the IC50 was in the range of 50 to 500 nM.

In the case of `CCOC(=O)COc1ccc(C(=O)CCC(=O)Nc2nc(-c3ccccc3)c(Cc3ccccc3)s2)cc1` [Example 37], the half-inhibitory concentration (IC50) lay in the range of 50 to 500 nM. Still for that read-out and setting: the same measure for `CCOc1ccc(C(=O)NCCNC(=O)c2cc(-c3ccccc3)n(-c3ccc(OC(F)(F)F)cc3)c2C)cc1` [Example 62, N-{2-[(4-ethoxybenzoyl)amino]ethyl}-2-methyl-5-phenyl-1-[4-(trifluoromethoxy)phenyl]-1H-pyrrole-3-carboxamide]: 50 to 500 nM; for `CCOc1ccc(C(=O)CCC(=O)Nc2cc(-c3ccccc3)c(C(=O)OC(C)(C)C)s2)cc1OCC` [Example 56, tert-butyl 5-{[4-(3,4-diethoxyphenyl)-4-oxobutanoyl]amino}-3-phenylthiophene-2-carboxylate]: 50 to 500 nM.

With `CCOc1ccc(C(=O)CCC(=O)Nc2ccn(Cc3ccccc3)c2-c2ccccc2)cc1OCC` [Example 19, N-(1-benzyl-2-phenyl-1H-pyrrol-3-yl)-4-(3,4-diethoxyphenyl)-4-oxobutanamide], the IC50 was in the range of 10 to 50 nM.

For the molecule `CCOC(=O)CCc1ccc(NC(=O)CCC(=O)c2ccc(OCC)c(OCC)c2)cc1-c1ccccc1` [Example 9, ethyl 3-(5-{[4-(3,4-diethoxyphenyl)-4-oxobutanoyl]amino}biphenyl-2-yl)propanoate], the concentration for half-maximal inhibition (IC50) lay within 50 to 500 nM.

Staying with this data set, now noted: Table 2, 25 μM dioleoylglycerol, 25 μM [14C]-Oleoyl-CoA, 32° C., 15 min, read-out: DGAT inhibitory activity (according to IC50).
Turning to `CCOc1ccc(C(=O)CCC(=O)Nc2cc(-c3ccc(N4CCOCC4)cc3)cc(-c3ccccc3)n2)cc1OCC` [Example 129, 4-(3,4-diethoxyphenyl)-N-[4-(4-(morpholin-4-yl)phenyl)-6-phenylpyridin-2-yl]-4-oxobutanamide], the IC50 was 500 to 10000 nM. As for `CCOc1ccc(C(=O)CCC(=O)Nc2cc(-c3ccc4[nH]ccc4c3)cc(-c3ccccc3)n2)cc1OCC` [Example 121, 4-(3,4-diethoxyphenyl)-N-[4-(1H-indol-5-yl)-6-phenylpyridin-2-yl]-4-oxobutanamide], the IC50 is at most 10 nM.

For the molecule `CCCc1cc(C(=O)CCC(=O)Nc2cc(-c3ccccc3)c(Cc3ccccc3)s2)ccc1OCC` [Example 97, N-(5-benzyl-4-phenyl-2-thienyl)-4-(4-ethoxy-3-propylphenyl)-4-oxobutanamide], the IC50 lay in the range of 50 to 500 nM. Still for that read-out and setting: the same measure for `COC(=O)/C=C/c1ccc(-c2cc(NC(=O)CCC(=O)c3ccc4c(c3)CCO4)nc(-c3ccccc3)c2)cc1` [Example 159, methyl (2E)-3-[4-(2-{[4-(2,3-dihydro-1-benzofuran-5-yl)-4-oxobutanoyl]amino}-6-phenylpyridin-4-yl)phenyl]acrylate]: 500 to 10000 nM; for `CCCCOc1cccc(-c2cc(NC(=O)CCC(=O)c3ccc4c(c3)CCO4)nc(-c3ccccc3)c2)c1` [Example 166, N-[4-(3-butoxyphenyl)-6-phenylpyridin-2-yl]-4-(2,3-dihydro-1-benzofuran-5-yl)-4-oxobutanamide]: 500 to 10000 nM; for `CCOc1ccc(C(=O)CCC(=O)Nc2cc(-c3cccn3C(=O)OC(C)(C)C)cc(-c3ccccc3)n2)cc1OCC` [Example 118, tert-butyl 2-(2-{[4-(3,4-diethoxyphenyl)-4-oxobutanoyl]amino}-6-phenylpyridin-4-yl)-1H-pyrrole-1-carboxylate]: 500 to 10000 nM. Same read-out and setting: the same measure for `CCOc1ccc(C(=O)CCC(=O)Nc2cc(-c3cnn(C)c3)cc(-c3ccccc3)n2)cc1OCC` [Example 119, 4-(3,4-diethoxyphenyl)-N-[4-(1-methyl-1H-pyrazol-4-yl)-6-phenylpyridin-2-yl]-4-oxobutanamide]: 50 to 500 nM; for `N#CCc1cccc(-c2cc(NC(=O)CCC(=O)c3ccc4c(c3)CCO4)nc(-c3ccccc3)c2)c1` [Example 164, N-{4-[3-(cyanomethyl)phenyl]-6-phenylpyridin-2-yl}-4-(2,3-dihydro-1-benzofuran-5-yl)-4-oxobutanamide]: 10 to 50 nM.

`O=C(CCC(=O)c1ccc2c(c1)CCO2)Nc1cc(-c2ccncc2)cc(-c2ccccc2)n1` [Example 116, 4-(2,3-dihydro-1-benzofuran-5-yl)-4-oxo-N-(6-phenyl-4,4′-bipyridin-2-yl)butanamide]: the IC50 was 500 to 10000 nM. Same read-out and setting: the value for `CCOc1ccc(C(=O)CCC(=O)Nc2cc(C(C)(C)C)nn2-c2ccc(C(C)(C)C)cc2)cc1OCC` [Example 100, N-[3-tert-butyl-1-(4-tert-butylphenyl)-1H-pyrazol-5-yl]-4-(3,4-diethoxyphenyl)-4-oxobutanamide] was 500 to 10000 nM. For the molecule `O=C(CCC(=O)c1ccc2c(c1)CCO2)Nc1cc(-c2ccc3[nH]ccc3c2)cc(-c2ccccc2)n1` [Example 154, 4-(2,3-dihydro-1-benzofuran-5-yl)-N-[4-(1H-indol-5-yl)-6-phenylpyridin-2-yl]-4-oxobutanamide], the IC50 lay in the range of 10 to 50 nM.

Regarding `CCOc1ccc(C(=O)CCC(=O)Nc2cc(-c3ccccc3)c3ccccc3n2)cc1OCC` [Example 74, 4-(3,4-diethoxyphenyl)-4-oxo-N-(4-phenylquinolin-2-yl)butanamide], the IC50 is at most 10 nM. The same measure, in the same setting: the value for `CCOc1ccc(C(=O)CCC(=O)Nc2cc(-c3ccc(OCCCN(C)C)cc3)c3ccccc3n2)cc1OCC` [Example 93, 4-(3,4-diethoxyphenyl)-N-(4-{4-[3-(dimethylamino)propoxy]phenyl}quinolin-2-yl)-4-oxobutanamide] was 50 to 500 nM; that for `CCOC(=O)/C=C/c1ccc2nc(NC(=O)CCC(=O)c3ccc(OCC)c(OCC)c3)cc(-c3ccc(C)cc3)c2c1` [Example 77, ethyl(2E)-3-[2-{[4-(3,4-diethoxyphenyl)-4-oxobutanoyl]amino}-4-(4-methylphenyl)quinoline-6-yl]acrylate] was 10 to 50 nM.

Test system in another data set: not given
Test: not given
Settings: not given
A word on the melting point: it is the temperature, or range, at which the solid turns liquid. For `CCOc1ccc(C(=O)CCC(=O)Nc2sc(-c3ccccc3)nc2-c2ccccc2)cc1OCC` [Example 16, 4-(3,4-diethoxyphenyl)-N-(2,4-diphenyl-1,3-thiazol-5-yl)-4-oxobutanamide], the melting point lay within 139 to 140 °C.

(Values after patent publication US20090048258A1, “Amide Compound” (priority 2005, published 2009).)
